Assay results: the supplement of paper PMC6045584
± gives the standard deviation of the averaged measurements.

Experiments:
[1] = compound: C[C@@H](Oc1cc(-c2cnn(C3CCNCC3)c2)cnc1N)c1c(Cl)ccc(F)c1Cl [CRIZOTINIB]; experiment: area under dose-response curve of surviving fraction (unscaled, Aref=0) (surviving fraction x log10(nM)); higher = more resistant; settings: exposure time: 5 days; dose range 0.5-1000 nM
Procedure, shortened: (§1)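 Surviving fractions were fitted by 3-parameter logistic regression in the drc R package to give dose-response survival curves. They came from tumour cell lines treated for five days with eight inhibitor concentrations from 0.5 to 1000 nM and read by CellTiter-Glo luminescence against DMSO-only wells. The area under the curve is the unscaled activity area. It was calculated over log10 dose with Aref = 0.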

[2] = compound: T1, Oc1nc(-c2ccc(C(F)(F)F)cc2)nc2c1CSCC2 [XAV-939]; experiment: as above; settings: exposure time: 5 days; dose range 0.5-1000 nM
Procedure, shortened: as §1

[3] = compound: O=C(c1cc(Cc2n[nH]c(=O)c3ccccc23)ccc1F)N1CCN(C(=O)C2CC2)CC1 [OLAPARIB]; experiment: as above; settings: exposure time: 5 days; dose range 0.5-1000 nM
Procedure, shortened: as §1

[4] = compound: CNCc1ccc(-c2[nH]c3cc(F)cc4c3c2CCNC4=O)cc1; experiment: as above; settings: exposure time: 5 days; dose range 0.5-1000 nM
Procedure, shortened: as §1

[5] = compound: T1, XAV-939; experiment: surviving fraction relative to DMSO-only wells; higher = less growth inhibition; settings: exposure time: 5 days
Procedure, shortened: (§2)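 After seeding at 250–500 cells per well in 384-well plates and a 24-hour wait, log-phase tumour cell lines were exposed without interruption for five days to inhibitors at 0.5, 1, 5, 10, 50, 100, 500 and 1000 nM. CellTiter-Glo luminescence was recorded after 10 minutes at room temperature. Viability is reported as surviving fraction, the luminescence normalised to the median of DMSO-only wells.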

[6] = compound: CNCc1ccc(-c2[nH]c3cc(F)cc4c3c2CCNC4=O)cc1; experiment: as above; settings: exposure time: 5 days
Procedure, shortened: as §2

## MDAMB157 BREAST
[1]
  area under dose-response curve: 3.17
[2]
  area under dose-response curve: 3.08
[3]
  area under dose-response curve: 3.21
[4]
  area under dose-response curve: 3.13
[5]; 0.5 nM
  surviving fraction: 0.969 ± 0.012
[5]; 1 nM
  surviving fraction: 0.94 ± 0.11
[5]; 5 nM
  surviving fraction: 0.974 ± 0.059
[5]; 10 nM
  surviving fraction: 1.05 ± 0.039
[5]; 50 nM
  surviving fraction: 0.919 ± 0.084
[5]; 100 nM
  surviving fraction: 0.934 ± 0.079
[5]; 500 nM
  surviving fraction: 0.775 ± 0.071
[5]; 1000 nM
  surviving fraction: 0.709 ± 0.074
[6]; 0.5 nM
  surviving fraction: 0.959 ± 0.026
[6]; 1 nM
  surviving fraction: 0.91 ± 0.025
[6]; 5 nM
  surviving fraction: 1.04 ± 0.053
[6]; 10 nM
  surviving fraction: 1.03 ± 0.09
[6]; 50 nM
  surviving fraction: 0.921 ± 0.088
[6]; 100 nM
  surviving fraction: 1 ± 0.12
[6]; 500 nM
  surviving fraction: 0.73 ± 0.03
[6]; 1000 nM
  surviving fraction: 0.691 ± 0.015

## MDAMB231 BREAST
[1]
  area under dose-response curve: 2.93
[2]
  area under dose-response curve: 2.95
[3]
  area under dose-response curve: 3.09
[4]
  area under dose-response curve: 3.03
[5]; 0.5 nM
  surviving fraction: 0.957 ± 0.013
[5]; 1 nM
  surviving fraction: 1.01 ± 0.028
[5]; 5 nM
  surviving fraction: 0.982 ± 0.021
[5]; 10 nM
  surviving fraction: 0.983 ± 0.018
[5]; 50 nM
  surviving fraction: 0.917 ± 0.016
[5]; 100 nM
  surviving fraction: 0.866 ± 0.025
[5]; 500 nM
  surviving fraction: 0.656 ± 0.015
[5]; 1000 nM
  surviving fraction: 0.586 ± 0.026
[6]; 0.5 nM
  surviving fraction: 0.937 ± 0.013
[6]; 1 nM
  surviving fraction: 0.967 ± 0.027
[6]; 5 nM
  surviving fraction: 0.971 ± 0.06
[6]; 10 nM
  surviving fraction: 0.959 ± 0.021
[6]; 50 nM
  surviving fraction: 0.917 ± 0.015
[6]; 100 nM
  surviving fraction: 0.891 ± 0.037
[6]; 500 nM
  surviving fraction: 0.824 ± 0.02
[6]; 1000 nM
  surviving fraction: 0.764 ± 0.0086

## MDAMB361 BREAST
[1]
  area under dose-response curve: 2.86
[2]
  area under dose-response curve: 3.04
[3]
  area under dose-response curve: 2.26
[4]
  area under dose-response curve: 2.1
[5]; 0.5 nM
  surviving fraction: 0.879 ± 0.03
[5]; 1 nM
  surviving fraction: 0.906 ± 0.036
[5]; 5 nM
  surviving fraction: 0.955 ± 0.045
[5]; 10 nM
  surviving fraction: 0.901 ± 0.034
[5]; 50 nM
  surviving fraction: 1 ± 0.02
[5]; 100 nM
  surviving fraction: 0.917 ± 0.099
[5]; 500 nM
  surviving fraction: 0.923 ± 0.024
[5]; 1000 nM
  surviving fraction: 0.874 ± 0.054
[6]; 0.5 nM
  surviving fraction: 0.709 ± 0.074
[6]; 1 nM
  surviving fraction: 0.752 ± 0.04
[6]; 5 nM
  surviving fraction: 0.672 ± 0.041
[6]; 10 nM
  surviving fraction: 0.69 ± 0.0053
[6]; 50 nM
  surviving fraction: 0.543 ± 0.065
[6]; 100 nM
  surviving fraction: 0.615 ± 0.082
[6]; 500 nM
  surviving fraction: 0.553 ± 0.09
[6]; 1000 nM
  surviving fraction: 0.589 ± 0.063

## MDAMB436 BREAST
[1]
  area under dose-response curve: 3.4
[2]
  area under dose-response curve: 3.05
[3]
  area under dose-response curve: 2.31
[4]
  area under dose-response curve: 2.37
[5]; 0.5 nM
  surviving fraction: 0.957 ± 0.092
[5]; 1 nM
  surviving fraction: 0.911 ± 0.088
[5]; 5 nM
  surviving fraction: 0.923 ± 0.013
[5]; 10 nM
  surviving fraction: 0.968 ± 0.079
[5]; 50 nM
  surviving fraction: 0.959 ± 0.075
[5]; 100 nM
  surviving fraction: 0.958 ± 0.081
[5]; 500 nM
  surviving fraction: 0.856 ± 0.049
[5]; 1000 nM
  surviving fraction: 0.82 ± 0.011
[6]; 0.5 nM
  surviving fraction: 0.882 ± 0.12
[6]; 1 nM
  surviving fraction: 0.925 ± 0.083
[6]; 5 nM
  surviving fraction: 0.874 ± 0.092
[6]; 10 nM
  surviving fraction: 0.82 ± 0.1
[6]; 50 nM
  surviving fraction: 0.62 ± 0.11
[6]; 100 nM
  surviving fraction: 0.587 ± 0.053
[6]; 500 nM
  surviving fraction: 0.542 ± 0.097
[6]; 1000 nM
  surviving fraction: 0.531 ± 0.064

## MFM223 BREAST
[1]
  area under dose-response curve: 3.69
[2]
  area under dose-response curve: 3.24
[3]
  area under dose-response curve: 2.99
[4]
  area under dose-response curve: 2.94
[5]; 0.5 nM
  surviving fraction: 1.18 ± 0.037
[5]; 1 nM
  surviving fraction: 1.11 ± 0.062
[5]; 5 nM
  surviving fraction: 1.12 ± 0.023
[5]; 10 nM
  surviving fraction: 1.112 ± 0.0058
[5]; 50 nM
  surviving fraction: 0.913 ± 0.034
[5]; 100 nM
  surviving fraction: 1.08 ± 0.043
[5]; 500 nM
  surviving fraction: 0.891 ± 0.059
[5]; 1000 nM
  surviving fraction: 0.685 ± 0.033
[6]; 0.5 nM
  surviving fraction: 1.04 ± 0.11
[6]; 1 nM
  surviving fraction: 1.17 ± 0.072
[6]; 5 nM
  surviving fraction: 1.07 ± 0.069
[6]; 10 nM
  surviving fraction: 1.13 ± 0.12
[6]; 50 nM
  surviving fraction: 0.775 ± 0.053
[6]; 100 nM
  surviving fraction: 0.699 ± 0.011
[6]; 500 nM
  surviving fraction: 0.755 ± 0.031
[6]; 1000 nM
  surviving fraction: 0.705 ± 0.079

## MHM BONE
[1]
  area under dose-response curve: 3.27
[2]
  area under dose-response curve: 3.28
[3]
  area under dose-response curve: 3.42
[4]
  area under dose-response curve: 3.49
[5]; 0.5 nM
  surviving fraction: 0.999 ± 0.011
[5]; 1 nM
  surviving fraction: 1.02 ± 0.033
[5]; 5 nM
  surviving fraction: 1.024 ± 0.009
[5]; 10 nM
  surviving fraction: 1.03 ± 0.033
[5]; 50 nM
  surviving fraction: 0.96 ± 0.081
[5]; 100 nM
  surviving fraction: 1.04 ± 0.012
[5]; 500 nM
  surviving fraction: 0.963 ± 0.005
[5]; 1000 nM
  surviving fraction: 0.949 ± 0.029
[6]; 0.5 nM
  surviving fraction: 1.02 ± 0.025
[6]; 1 nM
  surviving fraction: 1.02 ± 0.035
[6]; 5 nM
  surviving fraction: 1.05 ± 0.015
[6]; 10 nM
  surviving fraction: 1.06 ± 0.051
[6]; 50 nM
  surviving fraction: 1.06 ± 0.039
[6]; 100 nM
  surviving fraction: 1.074 ± 0.0062
[6]; 500 nM
  surviving fraction: 1.09 ± 0.022
[6]; 1000 nM
  surviving fraction: 1.07 ± 0.041

## OSHN BONE
[1]
  area under dose-response curve: 3.28
[2]
  area under dose-response curve: 3.53
[3]
  area under dose-response curve: 3.28
[4]
  area under dose-response curve: 3.21
[5]; 0.5 nM
  surviving fraction: 1.02 ± 0.013
[5]; 1 nM
  surviving fraction: 1.07 ± 0.047
[5]; 5 nM
  surviving fraction: 1.07 ± 0.037
[5]; 10 nM
  surviving fraction: 1.05 ± 0.038
[5]; 50 nM
  surviving fraction: 1.05 ± 0.015
[5]; 100 nM
  surviving fraction: 1.09 ± 0.031
[5]; 500 nM
  surviving fraction: 1.07 ± 0.038
[5]; 1000 nM
  surviving fraction: 1.11 ± 0.035
[6]; 0.5 nM
  surviving fraction: 1.03 ± 0.028
[6]; 1 nM
  surviving fraction: 1.06 ± 0.028
[6]; 5 nM
  surviving fraction: 1.01 ± 0.031
[6]; 10 nM
  surviving fraction: 1.02 ± 0.048
[6]; 50 nM
  surviving fraction: 0.945 ± 0.031
[6]; 100 nM
  surviving fraction: 0.933 ± 0.029
[6]; 500 nM
  surviving fraction: 0.959 ± 0.02
[6]; 1000 nM
  surviving fraction: 0.857 ± 0.036

## S68 BREAST
[1]
  area under dose-response curve: 2.72
[2]
  area under dose-response curve: 3.19
[3]
  area under dose-response curve: 2.85
[4]
  area under dose-response curve: 2.67
[5]; 0.5 nM
  surviving fraction: 0.722 ± 0.22
[5]; 1 nM
  surviving fraction: 0.763 ± 0.12
[5]; 5 nM
  surviving fraction: 1.14 ± 0.25
[5]; 10 nM
  surviving fraction: 0.983 ± 0.32
[5]; 50 nM
  surviving fraction: 1.19 ± 0.13
[5]; 100 nM
  surviving fraction: 1.12 ± 0.22
[5]; 500 nM
  surviving fraction: 0.829 ± 0.05
[5]; 1000 nM
  surviving fraction: 0.767 ± 0.076
[6]; 0.5 nM
  surviving fraction: 1.19 ± 0.22
[6]; 1 nM
  surviving fraction: 0.82 ± 0.23
[6]; 5 nM
  surviving fraction: 0.959 ± 0.1
[6]; 10 nM
  surviving fraction: 0.996 ± 0.26
[6]; 50 nM
  surviving fraction: 0.676 ± 0.18
[6]; 100 nM
  surviving fraction: 0.696 ± 0.17
[6]; 500 nM
  surviving fraction: 0.691 ± 0.15
[6]; 1000 nM
  surviving fraction: 0.425 ± 0.11
